The term logP denotes a log measure of how a compound divides between an organic and an aqueous phase. Lower therefore signals lower lipophilicity.

Consider `NC1C2CCC1c1cccc(C(F)(F)F)c1C2` (stereo not drawn), for which the logP was 3.41.
To `O=[N+]([O-])c1ccc(O[C@@H]2O[C@H](CO)[C@H](O)[C@H](O)[C@H]2O)cc1` belongs -0.63; to `CCC(=O)OC1(c2ccccc2)CCN(C)CC1C` (stereo not drawn), 2.43.
As for `COc1ccccc1/C=C/C(=O)O`, the figure is 2.54; as for `CCC(=O)OC1(c2ccccc2)CCN(C)C(C)C1C` (stereo not drawn), 2.97.
To `C=CCC1CN(C)CCC1(OC(=O)CC)c1ccccc1` (stereo not drawn) belongs 2.97; to `C=C[C@H]1CN2CC[C@H]1C[C@@H]2[C@@H](O)c1ccnc2ccccc12`, 2.68; to `OC(c1ccccc1)C(O)c1ccccc1` (stereo not drawn), 1.91.
The molecule `CC(=O)OC1(c2ccccc2)CCN(C)C(C)C1C` (stereo not drawn) gave a logP of 2.51.
To `Cc1cc(=O)oc2ccc(O[C@@H]3O[C@H](CO)[C@@H](O)[C@H](O)[C@H]3O)cc12` belongs -0.66; to `C[C@H](N)[C@H](O)c1ccccc1` (relative stereo), 0.67; to `COc1cccc([C@]2(O)CCCC[C@H]2CN(C)C)c1` (relative stereo), 2.51.
To `NC1C2CCC1c1ccccc1C2` (stereo not drawn) belongs 2.04; to `NC1CCc2ccccc2C1O` (stereo not drawn), 0.81.
To `NC1C2CCC1c1ccc(C(F)(F)F)cc1C2` (stereo not drawn) belongs 3.54.
`NC1C2CCC1c1ccccc12` (stereo not drawn) came in with a logP of 2.01.
To `NC1C2CCC1c1cc(C(F)(F)F)ccc1C2` (stereo not drawn) belongs 3.45; to `CCC(=O)O[C@]1(c2ccccc2)C[C@H](C)N(C)C[C@H]1C`, 3.13.

The record behind these values is the SangsterLogP compilation.
